Data taken from patent US20250136997A1, “COMPOSITIONS FOR SEQUESTERING ISOAMYL AMINE AND METHODS OF USE THEREFOR” (University of Louisville Research Foundation, Inc., priority 2023, published 2025).

Columns and labels:
[1] = HPLC analysis of IAA and CA in serum and cerebrospinal fluid (CSF) of mice; assay type: in vivo, mouse
microglia = test: S100A8 and cleaved caspase-3 in brain microglia of treated mice (qPCR, western blot); assay type: in vivo, mouse
Experimental: Isolation of microglia, neuron, astrocytes, and oligodendrocytes from the brain. Mice were anaesthetized with a mixture of ketamine (16%) and xylazine (3%) by intraperitoneal injection and then sacrificed under basal conditions by transcardial perfusion with perfusion buffer (Ca^2+/Mg^2+ free HBSS containing 0.5 mM EGTA, 10 mM HEPES and 4.2 mM NaHCO3; pH 7.2). The perfused brain was removed and gently mechanically disaggregated with tweezers in dissociation buffer (HBSS containing 10 mM HEPES and 4.2 mM NaHCO3 supplemented with Type I collagenase (0.05%), Dispase II (25 mg/ml), DNase I (2.5 mg/ml), trypsin inhibitor ([…]); pH 7.5) followed by incubation at 37° C. for 1 hour. The tissue homogenate was centrifuged at 1,350×g for 5 minutes at 4° C. […]
Quantitative Real-Time PCR (qPCR) analysis of mRNA expression. […] For analysis of gene mRNA expression, […] of total RNA was reverse transcribed by SuperScript III reverse transcriptase (Invitrogen) and quantitation was performed using primers (Eurofins) with SSOADVANCED™ Universal SYBR Green Supermix (BioRad); GAPDH was used for normalization. […] Analysis and fold-change were determined using the comparative threshold cycle (Ct) method. […] Setting the expression value of GAPDH to 1.0, the relative expression values were calculated as […]. The change in mRNA expression was calculated as fold-change. […]

[2] = Interaction of S100p1-G and metabolite: streptavidin pull-down from BV2 cells and LC-MS; assay type: cell-based, mouse
Experimental: Interaction of S100p1-G and metabolite. Microglial BV2 cells (2×10^6) were transfected with biotinylated oligo S100p1-G or mutant using Lipofectamin RNAiMAX Reagent (Thermo Fisher) according to the manufacturer's instructions overnight at 37° C. […] of aged mouse fecal supernatant (from one-gram feces) was added into the cell growth medium. After six hours, the cells were collected in RIPA lysis buffer. […] of cell lysate was incubated with […] of DYNABEADS® Streptavidin beads (Thermo Fisher) at room temperature for 1 h. The bio-oligo complex was eluted with biotin (4 mg/ml)) in 25 mM Tris-HCL containing 0.3 M NaCl (PH 8.5) at 95° C. for 5 minutes. Metabolite analysis was performed with LC-MS.

[3] = Morris water maze (MWM) test; assay type: in vivo, mouse
Experimental: Morris water maze (MWM) test. Mice were trained in a 122 cm diameter, 50 cm height open-field water maze with non-reflective interior surfaces. The pool water was filled with water maintained at 25±1° C. and mixed with non-toxic white tempera paint. Distinctive and extra-maze cues were marked on the wall at specific locations and were visible to the mice in the maze. Mice were removed from cages, placed into the water from quasi-random start points and allowed a maximum of 60 seconds to probe the escape platform. The inter interval of each trail remained for 15 seconds. For four consecutive days, four trials (training) were recorded each day with a final test on day 5 (FIG. 4A). Performance was evaluated by the mean escape latencies base on every training trial (Vorhees and Williams, 2006).

[4] = IAA to young mice, phage to aged mice, oral gavage two months

CC(C)CCN [IAA, isoamylamine]
pass through the blood-brain barrier (BBB) ([1]; aged mice, serum and CSF, gut-derived metabolite): higher amounts than CA
IAA level in the serum (HPLC) ([1]; young mice gavage-given IAA, aged mice gavage-given phage^TSD-27): increased
S100A8 and cleaved caspase-3 in the microglia (microglia; all five major regions of the brain, IAA oral gavage): induced
metabolite within the Bio-S100p1-G complex (LC-MS) ([2]; cell lysates): only IAA interacts with S100p1-G
swim speeds in MWM ([3]; IAA (0.5 g/kg) to young mice, phage^TSD-27 (1×10^9 pfu/mouse) to aged mice, oral gavage every other day, two months): reduced
latency time to reach the platform in MWM [3, 4]: induced
memory and learning (normalized test path length, MWM) [3, 4]: induced the memory and learning loss

S100p1-G: CTGTGGGCAG CTGGCCAAGC (SEQ ID NO: 8), S100A8 promoter −57 . . . −38 (DNA CTGTGGGCAGCTGGCCAAGC; chemistry not given here)
IAA in CSF (HPLC) ([1]; aged mice, intravenous oligo, twice a week for 2 months): decline
expression of S100A8 and cleaved caspase-3 in microglia cells (qPCR, western blot) (microglia; young mice, gavage every other day for 2 months): prevented
IAA recruited to the oligo complex (LC-MS after pull-down) ([2]; microglial cells, gut fecal supernatant, 6 h, biotinylated oligo): recruited
memory and spatial learning (MWM) ([3]; aged mice, intravenous, twice a week for 2 months): recovered
